Measurements from PubChem BioAssay (NCI).
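Five compound concentrations were applied to cells in 96-well plates for 48 hours; endpoints were derived by simple linear interpolation of the resulting dose-response curve. GI50 = concentration required for 50% inhibition of growth. TGI marks complete inhibition of growth.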

Key:
Experiment in all cases: NCI-60 cell line screen, 48 h
[1] = system: SW-620 colon
[2] = system: SNB-19 CNS
[3] = system: SK-OV-3 ovarian
[4] = system: UACC-62 melanoma
[5] = system: MDA-MB-435
[6] = system: COLO 205 colon
[7] = system: SN12C renal
[8] = system: ACHN renal
[9] = system: HCT-116 colon
[10] = system: 786-0 renal
[11] = system: BT-549 breast
[12] = system: RPMI-8226 leukemia
[13] = system: NCI-H226 lung
[14] = system: NCI/ADR-RES ovarian
[15] = system: SF-268 CNS
[16] = system: K-562 leukemia
[17] = system: LOX IMVI melanoma
[18] = system: A498 renal
[19] = system: M14 melanoma
[20] = system: IGROV1 ovarian
[21] = system: A549 NSCLC
[22] = system: UACC-257 melanoma
[23] = system: NCI-H23 lung
[24] = system: MOLT-4 leukemia
[25] = system: SR leukemia
[26] = system: SF-539 CNS
[27] = system: OVCAR-8 ovarian
[28] = system: MDA-MB-231 breast
[29] = system: SK-MEL-2 melanoma
[30] = system: SF-295 CNS
[31] = system: RXF 393 renal
[32] = system: HOP-92 NSCLC
[33] = system: U251 CNS
[34] = system: NCI-H522 lung
[35] = system: SK-MEL-28 melanoma
[36] = system: HT29 colon
[37] = system: HOP-62 NSCLC
[38] = system: CCRF-CEM leukemia
[39] = system: T-47D breast
[40] = system: OVCAR-3 ovarian
[41] = system: HS 578T breast
[42] = system: UO-31 renal
[43] = system: MALME-3M melanoma
[44] = system: HCC-2998 colon
[45] = system: HL-60(TB) leukemia
[46] = system: SK-MEL-5 melanoma
[47] = system: HCT-15 colon
[48] = system: KM12 colon
[49] = system: OVCAR-5 ovarian
[50] = system: DU-145 prostate
[51] = system: EKVX NSCLC
[52] = system: OVCAR-4 ovarian
[53] = system: MCF7 breast
[54] = system: PC-3 prostate
[55] = system: NCI-H460 lung
[56] = system: SNB-75 CNS

`Clc1ccc(Nc2nnc(CNc3ccccc3)c3ccccc23)cc1` showed a GI50 [1] of 3.84 µM, a TGI [1] of 11.1 µM and a GI50 [2] of 4.71 µM. It also gave a TGI [2] of 22.7 µM, a GI50 [3] of 3.17 µM and a TGI [3] of 11.4 µM. The GI50 [4] was 1.25 µM, the TGI [4] was 5.7 µM and the GI50 [5] was 1.47 µM. For the same compound, the TGI [5] was 7.88 µM, the GI50 [6] was 0.915 µM and the TGI [6] was 5.39 µM. The GI50 [7] was 3.95 µM, the TGI [7] was 18.9 µM and the GI50 [8] was 3.1 µM. The TGI [8] was over 25 µM, the GI50 [9] was 1.2 µM and the TGI [9] was 5.02 µM. For the same compound, the GI50 [10] was 4.01 µM, the TGI [10] was 12.5 µM and the GI50 [11] was 2.93 µM. For the same compound, the TGI [11] was 8.2 µM, the GI50 [12] was 2.1 µM and the TGI [12] was 7.71 µM. The GI50 [13] was 2.52 µM, the TGI [13] was 7.98 µM and the GI50 [14] was 4.12 µM. It also gave a TGI [14] of 17 µM, a GI50 [15] of 3.28 µM and a TGI [15] of 14.5 µM. The GI50 [16] was 1.71 µM, the TGI [16] was 14.5 µM and the GI50 [17] was 1.57 µM. It also gave a TGI [17] of 4.97 µM, a GI50 [18] of 1.45 µM and a TGI [18] of 6.06 µM. The GI50 [19] was 1.74 µM, the TGI [19] was 6.65 µM and the GI50 [20] was 1.93 µM. For the same compound, the TGI [20] was 10.7 µM, the GI50 [21] was 3.17 µM and the TGI [21] was 20 µM. It also gave a GI50 [22] of 2.74 µM, a TGI [22] of 6.87 µM and a GI50 [23] of 2.5 µM. It also gave a TGI [23] of 16.4 µM, a GI50 [24] of 1.71 µM and a TGI [24] of 8.74 µM. It also gave a GI50 [25] of 1.75 µM, a TGI [25] of 12.3 µM and a GI50 [26] of 3.67 µM. The TGI [26] was 8.09 µM, the GI50 [27] was 4.63 µM and the TGI [27] was 16.8 µM. For the same compound, the GI50 [28] was 1.95 µM, the TGI [28] was 8.73 µM and the GI50 [29] was 2.16 µM. The TGI [29] was 5.83 µM, the GI50 [30] was 2.98 µM and the TGI [30] was 8.77 µM. For the same compound, the GI50 [31] was 2.6 µM, the TGI [31] was 8.12 µM and the GI50 [32] was 0.777 µM. For the same compound, the TGI [32] was 6.3 µM, the GI50 [33] was 3.28 µM and the TGI [33] was 7.33 µM. It also gave a GI50 [34] of 0.684 µM, a TGI [34] of 4.62 µM and a GI50 [35] of 3.67 µM. For the same compound, the TGI [35] was 10.5 µM, the GI50 [36] was 1.46 µM and the TGI [36] was 6.36 µM. The GI50 [37] was 2.86 µM, the TGI [37] was 8.84 µM and the GI50 [38] was 3.53 µM. The TGI [38] was 17.6 µM, the GI50 [39] was 1.17 µM and the TGI [39] was 8.28 µM. The GI50 [40] was 3.51 µM, the TGI [40] was 8.69 µM and the GI50 [41] was 2.95 µM. The TGI [41] was 12.9 µM, the GI50 [42] was 1.36 µM and the TGI [42] was 6.66 µM. For the same compound, the GI50 [43] was 2.66 µM, the TGI [43] was 9.92 µM and the GI50 [44] was 4.85 µM. The TGI [44] was 15.9 µM, the GI50 [45] was 3.71 µM and the TGI [45] was 13 µM. The GI50 [46] was 2.08 µM, the TGI [46] was 5.27 µM and the GI50 [47] was 2.99 µM. For the same compound, the TGI [47] was 9.39 µM, the GI50 [48] was 3.05 µM and the TGI [48] was 9.92 µM. The GI50 [49] was 4.92 µM, the TGI [49] was over 25 µM and the GI50 [50] was 4.55 µM. It also gave a TGI [50] of over 25 µM, a GI50 [51] of 1.61 µM and a TGI [51] of 15 µM. For the same compound, the GI50 [52] was 3 µM, the TGI [52] was over 25 µM and the GI50 [53] was 2.68 µM. It also gave a TGI [53] of 11.1 µM, a GI50 [54] of 1.91 µM and a TGI [54] of 14.4 µM. The GI50 [55] was 3.21 µM, the TGI [55] was 9.97 µM and the GI50 [56] was 0.871 µM. For the same compound, the TGI [56] was 7.05 µM.
